Measurements: patent publication US20220323455A1, “FUSED HETEROCYCLIC DERIVATIVES AS ANTIVIRAL AGENTS” (priority 2019, published 2022)

Tested on: HBV
Assay: HBV replication inhibition assay (BDNA assay) in HepG2.2.15 cells
Format: cell-based, Hepatitis B virus
Details: 6 days, encapsidated HBV DNA in supernatant
Experimental: HBV replication inhibition by the disclosed compounds were determined in cells infected or transfected with HBV or cells with stably integrated HBV, such as HepG2.2.15 cells (Sells et al. 1987). In this example, HepG2.2.15 cells were maintained in cell culture medium containing 10% fetal bovine serum (FBS), Geneticin, L-glutamine, penicillin and streptomycin. HepG2.2.15 cells were seeded in 96-well plates at a density of 40,000 cells/well and were treated with serially diluted compounds at a final DMSO concentration of 0.5% either alone or in combination by adding drugs in a checker box format. Cells were incubated with compounds for three days, after which medium was removed and fresh medium containing compounds was added to cells and incubated for another three days. At day 6, supernatant was removed and treated with DNase at 37° C. for 60 minutes, followed by enzyme inactivation at 75° C. for 15 minutes. Encapsidated HBV DNA was released from the virions and covalently linked HBV polymerase by incubating in lysis buffer (Affymetrix QS0010) containing 2.5 μg proteinase K at 50° C. for 40 minutes. HBV DNA was denatured by addition of 0.2 M NaOH and detected using a branched DNA (BDNA) QuantiGene assay kit according to manufacturer recommendation (Affymetrix). HBV DNA levels were also quantified using qPCR, based on amplification of encapsidated HBV DNA extraction with QuickExtraction Solution (Epicentre Biotechnologies) and amplification of HBV DNA using HBV specific PCR probes that can hybridize to HBV DNA and a fluorescently labeled probe for quantitation. In addition, cell viability of HepG2.2.15 cells incubated with test compounds alone or in combination was determined by using CellTitre-Glo reagent according to the manufacturer protocol (Promega). The mean background signal from wells containing only culture medium was subtracted from all other samples, and percent inhibition at each compound concentration was calculated by normalizing to signals from HepG2.2.15 cells treated with 0.5% DMSO using equation E1.
% inhibition(DMSOave−Xi)DMSOave×100% E1:
where DMSOave is the mean signal calculated from the wells that were treated with DMSO control (0% inhibition control) and Xi is the signal measured from the individual wells. EC50 values, effective concentrations that achieved 50% inhibitory effect, were determined by non-linear fitting using Graphpad Prism software (San Diego, Calif.) and equation E2.
Y=Ymin+(Ymax−Ymin)/(1+10(Log EC50−X)×HillSlope) E2:
where Y represents percent inhibition values and X represents the logarithm of compound concentrations.
Selected disclosed compounds were assayed in the HBV replication assay (BDNA assay), as described above, and a representative group of these active compounds is shown in Table 5.

Row | Compound | EC50
1 | C[C@@H]1Cc2nn3c(c2CN1C(=O)Nc1ccnc(C(F)F)c1F)C(F)(F)CCC(O)(CF)C3 (single isomer, unassigned) [Example 85, (3R,8R*)—N-(2-(Difluoromethyl)-3-fluoropyridin-4-yl)-11,11-difluoro-8-(fluoromethyl)-8-hydroxy-3-methyl-3,4,8,9,10,11-hexahydro-1H-pyrido[4′,3′:3,4]pyrazolo[1,5-a]azepine-2(7H)-carboxamide] | 45 nM
2 | C[C@@H]1Cc2nn3c(c2CN1C(=O)Nc1ccc(F)c(C#N)c1)C(F)(F)CCC(O)(CF)C3 (single isomer, unassigned) [Example 86, (3R,8S*)—N-(3-Cyano-4-fluorophenyl)-11,11-difluoro-8-(fluoromethyl)-8-hydroxy-3-methyl-3,4,8,9,10,11-hexahydro-1H-pyrido[4′,3′:3,4]pyrazolo[1,5-a]azepine-2(7H)-carboxamide] | 20 nM
3 | C[C@@H]1Cc2nn3c(c2CN1C(=O)Nc1ccnc(Br)c1F)C(F)(F)CCC(O)(CF)C3 (single isomer, unassigned) [Example 87, (3R,8S*)—N-(2-Bromo-3-fluoropyridin-4-yl)-11,11-difluoro-8-(fluoromethyl)-8-hydroxy-3-methyl-3,4,8,9,10,11-hexahydro-1H-pyrido[4′,3′:3,4]pyrazolo[1,5-a]azepine-2(7H)-carboxamide] | 39 nM
4 | C[C@@H]1Cc2nn3c(c2CN1C(=O)Nc1ccnc(C(F)F)c1F)C(F)(F)CCC(O)(CF)C3 (single isomer, unassigned) [Example 88, (3R,8S*)—N-(2-(Difluoromethyl)-3-fluoropyridin-4-yl)-11,11-difluoro-8-(fluoromethyl)-8-hydroxy-3-methyl-3,4,8,9,10,11-hexahydro-1H-pyrido[4′,3′:3,4]pyrazolo[1,5-a]azepine-2(7H)-carboxamide] | 118 nM
5 | C[C@@H]1Cc2nn3c(c2CN1C(=O)Nc1ccnc(C(F)F)c1F)C(F)(F)CCC(O)(CC#N)C3 (single isomer, unassigned) [Example 90, (3R,8S*)-8-(Cyanomethyl)-N-(2-(difluoromethyl)-3-fluoropyridin-4-yl)-11,11-difluoro-8-hydroxy-3-methyl-3,4,8,9,10,11-hexahydro-1H-pyrido[4′,3′:3,4]pyrazolo[1,5-a]azepine-2(7H)-carboxamide] | 54 nM
6 | C[C@@H]1Cc2nn3c(c2CN1C(=O)Nc1ccnc(Br)c1F)C(F)(F)CCC(O)(CC#N)C3 (single isomer, unassigned) [Example 91, (3R,8R*)—N-(2-Bromo-3-fluoropyridin-4-yl)-8-(cyanomethyl)-11,11-difluoro-8-hydroxy-3-methyl-3,4,8,9,10,11-hexahydro-1H-pyrido[4′,3′:3,4]pyrazolo[1,5-a]azepine-2(7H)-carboxamide] | 30 nM
7 | C[C@@H]1Cc2nn3c(c2CN1C(=O)Nc1ccnc(C(F)F)c1F)C(F)(F)CCC(O)(CC#N)C3 (single isomer, unassigned) [Example 92, (3R,8R*)-8-(Cyanomethyl)-N-(2-(difluoromethyl)-3-fluoropyridin-4-yl)-11,11-difluoro-8-hydroxy-3-methyl-3,4,8,9,10,11-hexahydro-1H-pyrido[4′,3′:3,4]pyrazolo[1,5-a]azepine-2(7H)-carboxamide] | 191 nM
8 | C[C@@H]1Cc2nn3c(c2CN1C(=O)Nc1ccc(F)c(C#N)c1)C(F)(F)CCC(O)(COCC(F)F)C3 (single isomer, unassigned) [Example 93, (3R,8R*)—N-(3-Cyano-4-fluorophenyl)-8-((2,2-difluoroethoxy)methyl)-11,11-difluoro-8-hydroxy-3-methyl-3,4,89,10,11-hexahydro-1H-pyrido[4′,3′:3,4]pyrazolo[1,5-a]azepine-2(7H)-carboxamide] | 45 nM
9 | C[C@@H]1Cc2nn3c(c2CN1C(=O)Nc1ccc(F)c(C#N)c1)C(F)(F)CCC(O)(COCC(F)F)C3 (single isomer, unassigned) [Example 94, (3R,8S*)—N-(3-Cyano-4-fluorophenyl)-8-((2,2-difluoroethoxy)methyl)-11,11-difluoro-8-hydroxy-3-methyl-3,4,8,9,10,11-hexahydro-1H-pyrido[4′,3′:3,4]pyrazolo[1,5-a]azepine-2(7H)-carboxamide] | 15 nM
10 | C#CC1(O)CCC(F)(F)c2c3c(nn2C1)C[C@@H](C)N(C(=O)Nc1ccc(F)c(C#N)c1)C3 (single isomer, unassigned) [Example 95, (3R,8R*)—N-(3-Cyano-4-fluorophenyl)-8-ethynyl-11,11-difluoro-8-hydroxy-3-methyl-3,4,8,9,10,11-hexahydro-1H-pyrido[4′,3′:3,4]pyrazolo[1,5-a]azepine-2(7H)-carboxamide] | 13 nM
11 | C#CC1(O)CCC(F)(F)c2c3c(nn2C1)C[C@@H](C)N(C(=O)Nc1ccnc(Br)c1F)C3 (single isomer, unassigned) [Example 96, (3R,8R*)—N-(2-Bromo-3-fluoropyridin-4-yl)-8-ethynyl-11,11-difluoro-8-hydroxy-3-methyl-3,4,8,9,10,11-hexahydro-1H-pyrido[4′,3′:3,4]pyrazolo[1,5-a]azepine-2(7H)-carboxamide] | 35 nM
12 | C#CC1(O)CCC(F)(F)c2c3c(nn2C1)C[C@@H](C)N(C(=O)Nc1ccc(F)c(C#N)c1)C3 (single isomer, unassigned) [Example 98, (3R,8S*)—N-(3-Cyano-4-fluorophenyl)-8-ethynyl-11,11-difluoro-8-hydroxy-3-methyl-3,4,8,9,10,11-hexahydro-1H-pyrido[4′,3′:3,4]pyrazolo[1,5-a]azepine-2(7H)-carboxamide] | 51 nM
13 | C#CC1(O)CCC(F)(F)c2c3c(nn2C1)C[C@@H](C)N(C(=O)Nc1ccnc(Br)c1F)C3 (single isomer, unassigned) [Example 99, (3R,8S*)—N-(2-Bromo-3-fluoropyridin-4-yl)-8-ethynyl-11,11-difluoro-8-hydroxy-3-methyl-3,4,8,9,10,11-hexahydro-1H-pyrido[4′,3′:3,4]pyrazolo[1,5-a]azepine-2(7H)-carboxamide] | 275 nM
14 | C[C@@H]1Cc2nn3c(c2CN1C(=O)Nc1ccc(F)c(C#N)c1)C(F)(F)CCC(C(C)(C)O)C3 (single isomer, unassigned) [Example 101, (3R,8S*)—N-(3-Cyano-4-fluorophenyl)-11,11-difluoro-8-(2-hydroxypropan-2-yl)-3-methyl-3,4,8,9,10,11-hexahydro-1H-pyrido[4′,3′:3,4]pyrazolo[1,5-a]azepine-2(7H)-carboxamide] | 44 nM
15 | C[C@@H]1Cc2nn3c(c2CN1C(=O)Nc1ccnc(Br)c1F)C(F)(F)CCC(C(C)(C)O)C3 (single isomer, unassigned) [Example 102, (3R,8S*)—N-(2-Bromo-3-fluoropyridin-4-yl)-1111-difluoro-8-(2-hydroxypropan-2-yl)-3-methyl-3,4,8,9,10,11-hexahydro-1H-pyrido[4′,3′:3,4]pyrazolo[1,5-a]azepine-2(7H)-carboxamide] | 88 nM
16 | C[C@@H]1Cc2nn3c(c2CN1C(=O)Nc1ccc(F)c(C#N)c1)C(F)(F)CCC(C(C)(C)O)C3 (single isomer, unassigned) [Example 103, (3R,8R*)—N-(3-Cyano-4-fluorophenyl)-11,11-difluoro-8-(2-hydroxypropan-2-yl)-3-methyl-3,4,8,9,10,11-hexahydro-1H-pyrido[4′,3′:3,4]pyrazolo[1,5-a]azepine-2(7H)-carboxamide] | 18 nM
17 | C[C@@H]1Cc2nn3c(c2CN1C(=O)Nc1ccnc(Br)c1F)C(F)(F)CCC(C(C)(C)O)C3 (single isomer, unassigned) [Example 104, (3R,8R*)—N-(2-Bromo-3-fluoropyridin-4-yl)-11,11-difluoro-8-(2-hydroxypropan-2-yl)-3-methyl-3,4,8,9,10,11-hexahydro-1H-pyrido[4′,3′:3,4]pyrazolo[1,5-a]azepine-2(7H)-carboxamide] | 36 nM
18 | COC(=O)NCC1CCC(F)(F)c2c3c(nn2C1)C[C@@H](C)N(C(=O)Nc1ccc(F)c(C#N)c1)C3 (single isomer, unassigned) [Example 105, methyl (((3R,8R*)-2-((3-cyano-4-fluorophenyl)carbamoyl)-11,11-difluoro-3-methyl-2,3,4,7,8,9,10,11-octahydro-1H-pyrido[4′,3′:3,4]pyrazolo[1,5-a]azepin-8-yl)methyl)carbamate] | 3 nM
19 | COC(=O)NCC1CCC(F)(F)c2c3c(nn2C1)C[C@@H](C)N(C(=O)Nc1ccnc(Br)c1F)C3 (single isomer, unassigned) [Example 106, Methyl (((3R,8R*)-2-((2-bromo-3-fluoropyridin-4-yl)carbamoyl)-11,11-difluoro-3-methyl-2,3,4,7,8,9,10,11-octahydro-1H-pyrido[4′,3′:3,4]pyrazolo[1,5-a]azepin-8-yl)methyl)carbamate] | 10 nM
